How the values were obtained:
[1] = system: IL-2 release from stimulated Jurkat cells; test: Human IL-2 Release Phenotypic Assay (Assay 3); format: cell-based; conditions: Jurkat cells (clone E6-1), 200 ng/ml PMA + 300 ng/ml ionomycin, IL-2 in supernatant by ELISA
Description: Human IL-2 Release Phenotypic Assay (Assay 3)
This assay measured the inhibition by MALT1 inhibitors of the IL-2 release from stimulated Jurkat cells, a human immortalized T lymphocyte cell line. IL-2 production from Jurkat cells is regulated by activation of NFκB signalling, which is in turn regulated by MALT1 protease activity.
Jurkat cells (clone E6-1, ATCC) were cultured in RPMI1640 supplemented with 10% (v/v) FBS and 1% (v/v) penicillin/streptomycin (100× liquid stocks). Cells were seeded in 96-well white tissue culture-treated plates (Perkin Elmer) at 50 000 cells/well and incubated overnight at 37° C., 5% CO2. Test compounds in DMSO at half-log dilutions were added to the cells and incubated for 30 mins. Final DMSO concentration was 0.5%. Cells were then stimulated with 200 ng/ml PMA+300 ng/ml ionomycin and incubated for 48 hours. IL-2 present in the supernatant was then measured by ELISA according to the kit instructions (ELISA MAX Deluxe Set Human IL-2, BioLegend). % inhibition was calculated for each well, using 30 μM of the commercially available MALT1 inhibitor, MLT-748, for 100% inhibition controls and no compound for 0% inhibition controls. IC50 values were calculated using GraphPad Prism using 4-parameter non-linear regression curve fit.

[2] = target: MALT1-GS-Ub (6-His-hMALT-1 residues 339-715 fused to ubiquitin) (Homo sapiens (Human), UniProt Q9UDY8); test: MALT1 Protease Assay 1 (Assay 1), cleavage of fluorogenic tetrapeptide substrate; format: biochemical; conditions: MALT1-GS-Ub 300-600 nM, Ac-LVSR-AMC 100 μM, 30 min preincubation, 60 min read
Description: MALT1 Protease Assay 1 (Assay 1)
(§1) MALT1 protease activity was assessed in vitro by measuring the cleavage of a fluorogenic tetrapeptide substrate.
A protein (MALT1-GS-Ub) comprising 6-His-hMALT-1 (residues 339-715), fused to ubiquitin with an 8× GGS linker, was expressed in E. coli, and purified using chitin resin to remove contaminants followed by affinity chromatography purification and size-exclusion chromatography, according to standard protocols.
Briefly, MALT1-GS-Ub (300-600 nM) was incubated with substrate (Ac-LVSR-AMC, 100 μM) in reaction buffer comprising 50 mM HEPES (pH7.0), 25 mM KCl, 0.1% (v/v) CHAPS and 1 mM TCEP.
(§2) Test compounds dissolved in DMSO were dispensed into assay plates (384-well, black, shallow ProxiPlates). 7 μl enzyme solution was added and incubated at room temperature for 30 minutes to allow compound binding to occur. 2 μl substrate solution was then added and the fluorescence (excitation 360 nm, emission 460 nm) read every 15 minutes using a suitable plate reader. Final assay DMSO concentration was 1%. Linearity over 60 minutes was confirmed, and assay signal was calculated by subtracting raw counts at time 0 from those at 60 minutes. % inhibition was calculated for each well, using no enzyme for 100% inhibition controls and no compound for 0% inhibition controls. IC50 values were calculated using GraphPad Prism using a 4-parameter non-linear regression curve fit.

FL hMALT1 enzyme = FL hMALT1 enzyme (Homo sapiens (Human), UniProt Q9UDY8); test: MALT1 Protease Assay 2 (Assay 2), higher sensitivity, cleavage of fluorogenic tetrapeptide substrate; format: biochemical; conditions: FL hMALT1 1-10 nM, Ac-LVSR-AMC 100 μM, 0.7 M sodium citrate, 30 min preincubation, 60 min read
Description: MALT1 Protease Assay 2 (Assay 2)
as §1
For a higher sensitivity assay, commercially available FL hMALT1 enzyme (Abcam, 1-10 nM) was incubated with substrate (Ac-LVSR-AMC, 100 μM) in reaction buffer comprising 50 mM HEPES (pH7.0), 25 mM KCl, 0.1% (v/v) CHAPS, 1 mM TCEP and 0.7 M sodium citrate.
as §2

Chain of FL hMALT1 enzyme (Q9UDY8 whole entry): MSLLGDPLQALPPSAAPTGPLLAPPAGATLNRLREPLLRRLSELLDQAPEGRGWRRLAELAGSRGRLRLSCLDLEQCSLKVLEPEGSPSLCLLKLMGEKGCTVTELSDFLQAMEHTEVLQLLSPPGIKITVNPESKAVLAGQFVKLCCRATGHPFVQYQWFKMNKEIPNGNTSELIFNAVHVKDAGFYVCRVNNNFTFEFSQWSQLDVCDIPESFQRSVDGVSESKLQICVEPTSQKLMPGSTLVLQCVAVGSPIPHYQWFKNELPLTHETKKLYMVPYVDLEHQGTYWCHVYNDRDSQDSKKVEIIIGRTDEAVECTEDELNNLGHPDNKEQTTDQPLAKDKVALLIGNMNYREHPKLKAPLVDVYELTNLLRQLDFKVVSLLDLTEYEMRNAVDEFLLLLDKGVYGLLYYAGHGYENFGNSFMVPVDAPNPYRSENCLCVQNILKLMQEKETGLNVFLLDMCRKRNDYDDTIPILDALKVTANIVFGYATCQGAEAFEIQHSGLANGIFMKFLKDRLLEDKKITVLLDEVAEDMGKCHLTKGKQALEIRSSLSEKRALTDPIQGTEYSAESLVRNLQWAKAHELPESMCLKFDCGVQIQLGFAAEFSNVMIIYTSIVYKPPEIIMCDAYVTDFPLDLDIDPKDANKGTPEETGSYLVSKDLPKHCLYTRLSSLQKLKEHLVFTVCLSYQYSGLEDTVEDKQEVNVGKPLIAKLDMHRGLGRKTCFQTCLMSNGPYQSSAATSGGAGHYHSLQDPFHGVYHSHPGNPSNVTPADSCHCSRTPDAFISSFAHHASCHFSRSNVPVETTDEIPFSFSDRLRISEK
Chain of MALT1-GS-Ub (6-His-hMALT-1 residues 339-715 fused to ubiquitin) (Q9UDY8 other isoform, or with tags, fused parts or gaps): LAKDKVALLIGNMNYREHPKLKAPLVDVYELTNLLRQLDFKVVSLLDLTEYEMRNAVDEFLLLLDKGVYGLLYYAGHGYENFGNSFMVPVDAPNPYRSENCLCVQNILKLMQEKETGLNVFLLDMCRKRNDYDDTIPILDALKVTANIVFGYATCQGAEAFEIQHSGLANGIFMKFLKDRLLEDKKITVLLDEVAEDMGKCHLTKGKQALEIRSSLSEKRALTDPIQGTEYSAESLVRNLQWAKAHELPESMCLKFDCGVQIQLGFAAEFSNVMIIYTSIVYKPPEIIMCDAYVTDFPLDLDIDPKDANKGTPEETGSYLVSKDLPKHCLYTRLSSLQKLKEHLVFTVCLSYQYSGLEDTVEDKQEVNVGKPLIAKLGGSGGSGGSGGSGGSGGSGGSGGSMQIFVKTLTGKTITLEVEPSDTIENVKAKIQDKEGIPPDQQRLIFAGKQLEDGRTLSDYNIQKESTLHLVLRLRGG

| Structure (SMILES) | IC50 ([1]; Homo sapiens, Jurkat, 48 h) | IC50 (FL hMALT1 enzyme) | IC50 ([1]; 48 hours) | IC50 [2] |
| --- | --- | --- | --- | --- |
| CC1(C)CN(C(=O)Nc2cnc(-n3nccn3)c(C(F)(F)F)c2)c2cccc(Br)c2O1 [Example 23, N-(6-(2H-1,2,3-Triazol-2-yl)-5-(trifluoromethyl)pyridin-3-yl)-8-bromo-2,2-dimethyl-2,3-dihydro-4H-benzo[b][1,4]oxazine-4-carboxamide] | 290 nM | 110 nM |  | 860 nM |
| Cc1ncc2c(c1C#N)OC(C(F)(F)F)CN2C(=O)Nc1cnc(-n2nccn2)c(Cl)c1 (single isomer, unassigned) [Example 53, N-(5-Chloro-6-(2H-1,2,3-triazol-2-yl)pyridin-3-yl)-8-cyano-7-methyl-2-(trifluoromethyl)-2,3-dihydro-4H-pyrido[4,3-b][1,4]oxazine-4-carboxamide] | 390 nM | 60 nM |  |  |
| CC(C)[C@@H]1CN(C(=O)Nc2cnc(-n3nccn3)c(Cl)c2)c2cncc(Br)c2N1C [Example 35, (R)-8-Bromo-N-(5-chloro-6-(2H-1,2,3-triazol-2-yl)pyridin-3-yl)-2-isopropyl-1-methyl-2,3-dihydropyrido[3,4-b]pyrazine-4 (1H)-carboxamide] | 170 nM | 60 nM |  | 730 nM |
| N#CC1CN(C(=O)Nc2cnc(-n3nccn3)c(C(F)(F)F)c2)c2cccc(Br)c2O1 (stereo not drawn) [Example 6, N-(6-(2H-1,2,3-Triazol-2-yl)-5-(trifluoromethyl)pyridin-3-yl)-8-bromo-2-cyano-2,3-dihydro-4H-benzo[b][1,4]oxazine-4-carboxamide] | 2100 nM | 100 nM |  | 700 nM |
| Cc1ncc2c(c1Br)OCCN2C(=O)Nc1cnc(-n2nccn2)c(Cl)c1 [Example 41, 8-Bromo-N-(5-chloro-6-(2H-1,2,3-triazol-2-yl)pyridin-3-yl)-7-methyl-2,3-dihydro-4H-pyrido[4,3-b][1,4]oxazine-4-carboxamide] | > 10000 nM | 1400 nM |  | 3900 nM |
| C[C@@H]1CN(C(=O)Nc2cnc(-n3nccn3)c(Cl)c2)c2cncc(Br)c2N1C [Example 26, (R)-8-Bromo-N-(5-chloro-6-(2H-1,2,3-triazol-2-yl)pyridin-3-yl)-1.2-dimethyl-2,3-dihydropyrido[3,4-b]pyrazine-4 (1H)-carboxamide] | 1300 nM | 110 nM |  | 800 nM |
| N#Cc1cncc2c1OC(C(F)(F)F)CN2C(=O)Nc1cnc(-n2nccn2)c(Cl)c1 (single isomer, unassigned) [Example 55, N-(5-Chloro-6-(2H-1,2,3-triazol-2-yl)pyridin-3-yl)-8-cyano-2-(trifluoromethyl)-2,3-dihydro-4H-pyrido[4,3-b][1,4]oxazine-4-carboxamide] | 350 nM | 60 nM |  |  |
| CC[C@@H]1CN(C(=O)Nc2cnc(-n3nccn3)c(Cl)c2)c2cncc(Br)c2N1C [Example 34, (R)-8-Bromo-N-(5-chloro-6-(2H-1,2,3-triazol-2-yl)pyridin-3-yl)-2-ethyl-1-methyl-2,3-dihydropyrido[3,4-b]pyrazine-4 (1H)-carboxamide] | 290 nM | 50 nM |  | 970 nM |
| O=C(Nc1cnc(-n2nccn2)c(Cl)c1)N1CCOc2c(Br)cncc21 [Example 21, 8-Bromo-N-(5-chloro-6-(2H-1,2,3-triazol-2-yl)pyridin-3-yl)-2,3-dihydro-4H-pyrido[4,3-b][1,4]oxazine-4-carboxamide] | > 10000 nM | > 3000 nM |  | 2300 nM |

The remaining compounds from weak to strong by IC50 (FL hMALT1 enzyme), led by results:

| IC50 ([1]; Homo sapiens, Jurkat, 48 h) | IC50 (FL hMALT1 enzyme) | IC50 ([1]; 48 hours) | Structure (SMILES) | IC50 [2] |
| --- | --- | --- | --- | --- |
| 1700 nM | 2200 nM |  | Nc1ncc2c(c1Br)OCCN2C(=O)Nc1cnc(-n2nccn2)c(Cl)c1 [Example 36, 7-Amino-8-bromo-N-(5-chloro-6-(2H-1,2,3-triazol-2-yl)pyridin-3-yl)-2,3-dihydro-4H-pyrido[4.3-b][1.4]oxazine-4-carboxamide] |  |
| 420 nM | 1500 nM |  | CC1CN(C(=O)Nc2cnc(-n3nccn3)c(Cl)c2)c2cncc(Br)c2O1 (stereo not drawn) [Example 30, 8-Bromo-N-(5-chloro-6-(2H-1,2,3-triazol-2-yl)pyridin-3-yl)-2-methyl-2,3-dihydro-4H-pyrido[4,3-b][1,4]oxazine-4-carboxamide] | 1500 nM |
| 1900 nM | 190 nM |  | CC1(C#N)CN(C(=O)Nc2cnc(-n3nccn3)c(Cl)c2)c2cccc(Br)c2O1 (stereo not drawn) [Example 18, 8-Bromo-N-(5-chloro-6-(2H-1,2,3-triazol-2-yl)pyridin-3-yl)-2-cyano-2-methyl-2,3-dihydro-4H-benzo[b][1,4]oxazine-4-carboxamide] | 850 nM |
|  | 130 nM | > 10000 nM | CCC1CN(C(=O)Nc2cnc(-n3nccn3)c(Cl)c2)c2cncc(Br)c2O1 (single isomer, unassigned) [Example 47, 8-Bromo-N-(5-chloro-6-(2H-1,2,3-triazol-2-yl)pyridin-3-yl)-2-ethyl-2,3-dihydro-4H-pyrido[4,3-b][1,4]oxazine-4-carboxamide] |  |
|  | 120 nM | 4460 nM | CC(C)C1CN(C(=O)Nc2cnc(-n3nccn3)c(Cl)c2)c2cncc(Br)c2O1 (single isomer, unassigned) [Example 49, 8-Bromo-N-(5-chloro-6-(2H-1,2,3-triazol-2-yl)pyridin-3-yl)-2-isopropyl-2,3-dihydro-4H-pyrido[4,3-b][1,4]oxazine-4-carboxamide] |  |
|  | 80 nM | > 10000 nM | CC(C)C1CN(C(=O)Nc2cnc(-n3nccn3)c(Cl)c2)c2cncc(Br)c2O1 (single isomer, unassigned) [Example 48, 8-Bromo-N-(5-chloro-6-(2H-1,2,3-triazol-2-yl)pyridin-3-yl)-2-isopropyl-2,3-dihydro-4H-pyrido[4,3-b][1,4]oxazine-4-carboxamide] |  |
| 1400 nM | 60 nM |  | Cc1ncc2c(c1Br)OC(C(F)(F)F)CN2C(=O)Nc1cnc(-n2nccn2)c(Cl)c1 (single isomer, unassigned) [Example 43, 8-Bromo-N-(5-chloro-6-(2H-1,2,3-triazol-2-yl)pyridin-3-yl)-7-methyl-2-(trifluoromethyl)-2,3-dihydro-4H-pyrido[4,3-b][1,4]oxazine-4-carboxamide] |  |
| 300 nM | 60 nM |  | O=C(Nc1cnc(-n2nccn2)c(Cl)c1)N1CC(C(F)(F)F)Oc2c(Br)cncc21 (single isomer, unassigned) [Example 40, 8-Bromo-N-(5-chloro-6-(2H-1,2,3-triazol-2-yl)pyridin-3-yl)-2-(trifluoromethyl)-2,3-dihydro-4H-pyrido[4,3-b][1,4]oxazine-4-carboxamide] | 340 nM |
|  | 30 nM | 740 nM | CCC1CN(C(=O)Nc2cnc(-n3nccn3)c(Cl)c2)c2cncc(Br)c2O1 (single isomer, unassigned) [Example 46, 8-Bromo-N-(5-chloro-6-(2H-1,2,3-triazol-2-yl)pyridin-3-yl)-2-ethyl-2,3-dihydro-4H-pyrido[4,3-b][1,4]oxazine-4-carboxamide] |  |
| 286 nM | 21 nM |  | Cc1ncc2c(c1C#N)OC(C(F)(F)F)CN2C(=O)Nc1cnc(OC(F)F)c(Cl)c1 (single isomer, unassigned) [Example 61, N-(5-Chloro-6-(difluoromethoxy)pyridin-3-yl)-8-cyano-7-methyl-2-(trifluoromethyl)-2,3-dihydro-4H-pyrido[4,3-b][1,4]oxazine-4-carboxamide] |  |

— patent US20250136577A1, “HETEROCYCLIC DERIVATIVES AS MALT1 INHIBITORS” (C4X Discovery Limited, priority 2022, published 2025)
